Laboratory results published in patent publication US20030044909A1, “Melatonin-receptor expression cells and thier uses” (JCR PHARMACEUTICALS Co., Ltd., priority 1997, published 2003).

Target: mel-1a receptor expressed in CHO cell (Homo sapiens, UniProt P48039)
Conditions: after 2 min stimulation; mel-1a/CHO cells
Experimental: mel-1a/CHO cells were cultivated in advance in the DMEM medium containing 800 μg/ml G418 and 10% FBS, and mel-1a/CHO cells in the logarithmic growth phase were washed with PBS, treated with trypsin and diluted with the same medium to a concentration of 2.5×10^5/ml. 1 ml of cell suspension was seeded in each cell cup for cytosensor, and the cell cups were filled on the outside with 2 ml of the medium and then left on standing overnight udner th conditions of 5% CO2/37° C.
While paying attention not to cause air bubbles to mingle, a spacer was disposed on the bottom of each cell cup with use of sterile tweezers on the following day. When air bubbles were below the spacer, they were to be removed with a pipette. A capsule insert was placed in each cup, while preventing air bubbles from mingling, and the medium in the 1 ml portion was added from the top to thereby bury the cup in the medium, whereby it was to be ascertained that no air bubble had been drained or mingled into the spacer and insert.
Powdered low buffer RPM1 1640 medium (MDC) was dissolved in 1 liter of distilled water for tissue culture (Cosmo Bio), and the solution was adjusted to pH 7.4 and then suction-filtered through a 0.45 μm filter.
The Cyto software package of a personal computer was started up. A measuring medium was set in a ctyosensor, and fluid feeding system was switched for the measuring medium. The fluid inside the sensor chamber was aspirated out, and the measuring medium was placed in the 1.5 ml portion in to each cell, where a capsule cell prepared in advance was disposed while preventing air bubbles from mingling. The sensor chamber was connected to a cytosensor without causing air bubbles to mingle.
Each of the prepared samples was set on the cytosensor under the conditions where the metabolic rate was stabilized. Measurement with the cytosensor was performed by switching the fluid feeding from the measuring medium to the sample solution to stimulate the cells, then putting the fluid-feeding back to the measuring medium and measuring a change caused in metabolic rate of the cells, whereby stimulation with the sample was effected for 2 min. and subsequently the measuring medium continued to be fluid-fed until the metabolic rate was returned to the level determined prior to stimulation with the sample. […] Accordingly, stimulation with the sample was given at a regular interval of 40 min.
The cytosensor was designed to detect the release outside the cell of hydrogen ions, which is understood to reflect the metabolic activity of the cell, as a rate of change in extracellular hydrogen ion concentration. Upon binding of a ligand to the receptor expressed on the cell surface, intracellular signal transduction takes place, resulting in increased cellular metabolic activity to thereby release hydrogen ions outside the cell.

Chain of mel-1a receptor expressed in CHO cell (P48039 whole entry): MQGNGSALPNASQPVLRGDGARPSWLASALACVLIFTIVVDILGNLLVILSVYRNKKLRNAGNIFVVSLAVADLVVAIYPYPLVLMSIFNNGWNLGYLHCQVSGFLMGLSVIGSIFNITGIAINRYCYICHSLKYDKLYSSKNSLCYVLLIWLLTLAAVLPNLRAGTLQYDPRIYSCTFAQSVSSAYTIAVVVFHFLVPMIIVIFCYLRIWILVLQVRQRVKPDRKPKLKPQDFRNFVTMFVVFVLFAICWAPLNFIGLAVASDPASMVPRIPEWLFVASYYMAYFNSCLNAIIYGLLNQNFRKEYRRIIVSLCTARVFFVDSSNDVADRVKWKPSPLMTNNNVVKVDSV

Compound	time for the metabolic activity to decline to the level prior to stimulation
COc1ccc2[nH]cc(CCNC(C)=O)c2c1 [melatonin]	about 40 min

Same assay, conditions: mel-1a/CHO cells, cytosensor (FIG. 11)

Compound	increase in metabolic rate via the mel-1a receptor (responsiveness, specificity)
COc1ccc2[nH]cc(CCN)c2c1 [5-methoxytryptamine]	not to bring about an increase in metabolic rate
COc1ccc2[nH]cc(C[C@H](N)C(=O)O)c2c1 [5-methoxytryptophan]	not to bring about an increase in metabolic rate
CC(=O)NCCc1c[nH]c2ccc(O)cc12 [N-acetylserotonin]	not to bring about an increase in metabolic rate
COc1ccc2[nH]cc(CCNC(C)=O)c2c1 [melatonin]	responds specifically to melatonin alone
NCCc1c[nH]c2ccc(O)cc12 [serotonin]	not to bring about an increase in metabolic rate
N[C@@H](Cc1c[nH]c2ccccc12)C(=O)O [tryptophan]	not to bring about an increase in metabolic rate
